# Results taken from patent publication US6525001B1, “Substituted pyrimidine and pyridine herbicides” (Mid-American Commercialization Corporation, priority 1997, dated 2003).
# Tests used:
# Format in all cases: in vivo
# [1] = test system: johnson grass (Sorghum halepense); experiment: Test E pre-/postemergence/post directed; set-up: key: 0 is no effect; 100 is complete control; conditions: Rate 250 g/ha
# Method in brief: (§1)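 Greenhouse pots; compound in non-phytotoxic solvent with surfactant, sprayed preemergence within one day of planting, postemergence at two to four leaf stage (three to twenty cm), or post directed to plant base and soil. Visual injury rated 13 to 21 days after application, 0 (none) to 100 (complete control).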
# [2] = test system: alexandergrass (Brachiaria plantaginea); experiment: Test E pre-/postemergence/post directed; set-up: key: 0 is no effect; 100 is complete control; conditions: PREEMERGENCE
# Method in brief: as §1
# [3] = test system: leafy spurge (Euphorbia esula); experiment: Test E pre-/postemergence/post directed; set-up: key: 0 is no effect; 100 is complete control; conditions: PREEMERGENCE
# Method in brief: as §1
# [4] = test system: common chickweed (Stellaria media); experiment: Test E pre-/postemergence/post directed; set-up: key: 0 is no effect; 100 is complete control; conditions: PREEMERGENCE
# Method in brief: as §1
# B. signalgrass = experiment: Test E pre-/postemergence/post directed; set-up: key: 0 is no effect; 100 is complete control; conditions: PREEMERGENCE
# Method in brief: as §1
# [5] = test system: annual bluegrass (Poa annua); experiment: Test E pre-/postemergence/post directed; set-up: key: 0 is no effect; 100 is complete control; conditions: PREEMERGENCE
# Method in brief: as §1
# [6] = test system: green foxtail (Setaria viridis); experiment: Test E pre-/postemergence/post directed; set-up: key: 0 is no effect; 100 is complete control; conditions: PREEMERGENCE
# Method in brief: as §1
# [7] = test system: sandbur (Cenchrus echinatus); experiment: Test E pre-/postemergence/post directed; set-up: key: 0 is no effect; 100 is complete control; conditions: PREEMERGENCE, Rate 250 g/ha
# Method in brief: as §1
# [8] = test system: quackgrass (Agropyron repens); experiment: Test E pre-/postemergence/post directed; set-up: key: 0 is no effect; 100 is complete control; conditions: PREEMERGENCE
# Method in brief: as §1
# [9] = test system: arrowleaf sida (Sida rhombifolia); experiment: Test E pre-/postemergence/post directed; set-up: key: 0 is no effect; 100 is complete control; conditions: PREEMERGENCE
# Method in brief: as §1
# [10] = test system: Spanishneedles (Bidens bipinnata); experiment: Test E pre-/postemergence/post directed; set-up: key: 0 is no effect; 100 is complete control; conditions: PREEMERGENCE, Rate 250 g/ha
# Method in brief: as §1
# [11] = test system: giant foxtail (Setaria faberii); experiment: Test C; set-up: key: 0 was no effect; 100 was complete control; conditions: PREEMERGENCE
# [12] = test system: surinam grass (Brachiaria decumbens); experiment: Test C; conditions: PREEMERGENCE
# [13] = test system: cotton (Gossypium hirsutum); experiment: Test C; conditions: PREEMERGENCE
# corn (Zea mays) = experiment: Test C; set-up: key: 0 was no effect; 100 was complete control; conditions: PREEMERGENCE
smiles,measurement,setting,value
Cc1cnc(-c2ccc(C(F)(F)F)cc2)nc1Cc1cccc(OC(F)(F)F)c1 [Compound 15],"Plant response rating, Johnsongrass",[1]; POSTEMERGENCE,100
same,"Plant response rating, Johnsongrass",[1]; PREEMERGENCE,100
same,"Plant response rating, Alexandergrass",[2]; Rate 125 g/ha,100
same,"Plant response rating, Alexandergrass",[2]; Rate 250 g/ha,100
same,"Plant response rating, Leafy spurge",[3]; Rate 32 g/ha,35
same,"Plant response rating, Leafy spurge",[3]; Rate 64 g/ha,65
same,"Plant response rating, Leafy spurge",[3]; Rate 250 g/ha,98
same,"Plant response rating, Com. chickweed",[4]; Rate 32 g/ha,65
same,"Plant response rating, Com. chickweed",[4]; Rate 64 g/ha,85
same,"Plant response rating, Com. chickweed",[4]; Rate 125 g/ha,98
same,"Plant response rating, Com. chickweed",[4]; Rate 250 g/ha,100
same,"Plant response rating, B. signalgrass",B. signalgrass; Rate 32 g/ha,35
same,"Plant response rating, B. signalgrass",B. signalgrass; Rate 64 g/ha,60
same,"Plant response rating, B. signalgrass",B. signalgrass; Rate 125 g/ha,95
same,"Plant response rating, B. signalgrass",B. signalgrass; Rate 250 g/ha,98
same,"Plant response rating, A. bluegrass",[5]; Rate 32 g/ha,100
same,"Plant response rating, A. bluegrass",[5]; Rate 64 g/ha,100
same,"Plant response rating, A. bluegrass",[5]; Rate 125 g/ha,100
same,"Plant response rating, A. bluegrass",[5]; Rate 250 g/ha,100
same,"Plant response rating, Green foxtail",[6]; Rate 32 g/ha,100
same,"Plant response rating, Green foxtail",[6]; Rate 64 g/ha,100
same,"Plant response rating, Green foxtail",[6]; Rate 125 g/ha,100
same,"Plant response rating, Green foxtail",[6]; Rate 250 g/ha,100
same,"Plant response rating, Sandbur",[7],100
same,"Plant response rating, Quackgrass",[8]; Rate 32 g/ha,65
same,"Plant response rating, Quackgrass",[8]; Rate 64 g/ha,65
same,"Plant response rating, Quackgrass",[8]; Rate 125 g/ha,95
same,"Plant response rating, Quackgrass",[8]; Rate 250 g/ha,95
same,"Plant response rating, Arrowleaf sida",[9]; Rate 32 g/ha,65
same,"Plant response rating, Arrowleaf sida",[9]; Rate 64 g/ha,50
same,"Plant response rating, Arrowleaf sida",[9]; Rate 125 g/ha,100
same,"Plant response rating, Arrowleaf sida",[9]; Rate 250 g/ha,100
same,"Plant response rating, Spanishneedles",[10],100
same,"Plant response rating, Giant foxtail",[11]; Rate 35 g/ha,70
same,"Plant response rating, Giant foxtail",[11]; Rate 70 g/ha,100
same,"Plant response rating, Giant foxtail",[11]; Rate 140 g/ha,100
same,"Plant response rating, Surinam grass",[12]; Rate 35 g/ha,20
same,"Plant response rating, Surinam grass",[12]; Rate 70 g/ha,50
same,"Plant response rating, Surinam grass",[12]; Rate 140 g/ha,80
same,"Plant response rating, Cotton",[13]; Rate 35 g/ha,5
same,"Plant response rating, Cotton",[13]; Rate 70 g/ha,10
same,"Plant response rating, Cotton",[13]; Rate 140 g/ha,10
same,"Plant response rating, Corn",corn (Zea mays); Rate 35 g/ha,0
same,"Plant response rating, Corn",corn (Zea mays); Rate 70 g/ha,5
same,"Plant response rating, Corn",corn (Zea mays); Rate 140 g/ha,10
